From patent US6362175B1, “Porphyrin compounds for imaging tissue oxygen” (The Trustees of the University of Pennsylvania, priority 1991, dated 2002)
Each block holds one compound with its values, some of them ahead of it.

Columns and labels:
Assay type in all cases: physicochemical
[1] = Absorption spectra (Soret and Q bands)
Description: (§1) Absorption spectra were recorded on a Beckman DU-64 spectrophotometer. Emission spectra (fluorescence and phosphorescence) were recorded using an AMINCO SPF-500C spectrofluorimeter. ^1H NMR spectra were recorded using a Brucker 300 MHz instrument. Phosphorescence lifetime measurements were performed using a light guide phosphorimeter designed by applicants. HPLC analysis of reaction mixtures was carried out on a SpectraPhysics 8800 gradient system, using an Adsorbosphere HS C4 100×4.6 mm column and methanol:water mixture as a mobile phase.

[2] = Quenching of phosphorescence by oxygen (Stern-Volmer quenching constant)
From the text: Phosphorescence of certain chemical compounds is quenched by oxygen according to the Stern-Volmer relationship which is stated as follows:
where T0 and T are the phosphorescence lifetimes in the absence of oxygen, PO2 is the oxygen pressure for a lifetime of T, and kQ is the quenching constant. The constant kQ is related to the frequency of collisions between the excited triplet state molecule and molecular oxygen and the probability of energy transfer occurring when these molecules collide.
(§2) An enzymatic system (glucose-glucose oxidase-catalase) was used for deoxygenation of aqueous solutions and N2-O2 gas mixtures containing either 2.89% of oxygen or 20% oxygen (air) were used for calibration and measurements of the quenching constants.
as §1

[3] = Phosphorescence lifetime at zero oxygen, light guide phosphorimeter
From the text: (§3) Solvents for phosphorescence measurements were degassed by three freeze-pump-thaw cycles and stored in a vacuum over sodium benzophenone ketyl (THF) or 4 Å molecular sieves (DMF). The solvents were vacuum transferred immediately prior to the phosphorescence measurements and samples were sealed under high vacuum.
as §2, §1

[4] = Phosphorescence spectra of deoxygenated samples; settings: solvent THF, 25 °C
Description: as §3, §1
Phosphorescence of a series of metal-TBP compounds was detected using constant irradiation of samples with light wavelengths at their Q and Soret bands. To observe the phosphorescence phenomena and to record phosphorescence spectra, the samples were intensively deoxygenated. Accordingly, highly degassed dimethylformamide (DMF) or THF were used as solvents. The phosphorescence spectra of LuTPhTBP and PdTPhTBP are depicted in FIGS. 5 and 6, respectively.

[5] = solvent DMF, TBP/TPhTBP compounds
[6] = solvent DMF, TPhTNP compounds, average position of split Soret band
[7] = Phy. sol. (aqueous, pH 7.0), 38 °C
[8] = Phy. sol. adjusted to pH 7.4, 38 °C

- Q-band ([1]; solvent DMF): 633 nm
- Soret band [1, 5]: 432 nm
Compound: [OH][La]1[n]2c3c4ccccc4c2C(c2ccccc2)=C2N=C(C(c4ccccc4)=c4c5ccccc5c([n]41)=C(c1ccccc1)C1=NC(=C3c3ccccc3)c3ccccc31)c1ccccc12 [La(OH)TPhTBP]

- Q-band ([1]; solvent DMF): 708 nm
- Soret band [1, 6]: 440 nm
Compound: [OH][La]1[n]2c3c4cc5ccccc5cc4c2C(c2ccccc2)=C2N=C(C(c4ccccc4)=c4c5cc6ccccc6cc5c([n]41)=C(c1ccccc1)C1=NC(=C3c3ccccc3)c3cc4ccccc4cc31)c1cc3ccccc3cc12 [La(OH)TPhTNP]

- Q-band ([1]; solvent Acetone): 628 nm
- Soret band ([1]; solvent Acetone): 423 nm
Compound: [OH][Lu]1[n]2c3c4ccccc4c2C(c2ccccc2)=C2N=C(C(c4ccccc4)=c4c5ccccc5c([n]41)=C(c1ccccc1)C1=NC(=C3c3ccccc3)c3ccccc31)c1ccccc12 [Lu(OH)TPhTBP, lutetium (hydroxy) meso-tetraphenyltetrabenzoporphyrin]

- Q-band ([1]; solvent DMF): 709 nm
- Soret band [1, 6]: 440 nm
Compound: [OH][Lu]1[n]2c3c4cc5ccccc5cc4c2C(c2ccccc2)=C2N=C(C(c4ccccc4)=c4c5cc6ccccc6cc5c([n]41)=C(c1ccccc1)C1=NC(=C3c3ccccc3)c3cc4ccccc4cc31)c1cc3ccccc3cc12 [Lu(OH)TPhTNP]

Compound: c1ccc(C2=C3N=C(C(c4ccccc4)=c4c5ccccc5c5[n]4[Pb][n]4c2c2ccccc2c4C(c2ccccc2)=C2N=C(C=5c4ccccc4)c4ccccc42)c2ccccc23)cc1 [PbTPhTBP]
- Q-band ([1]; solvent Acetone): 663 nm
- Soret band ([1]; solvent Acetone): 487 nm

- Quenching constant at a temperature of 38° C. [2, 7]: 194 Torr^−1s^−1
- Phosphorescent lifetime at zero-oxygen concentration [3, 7]: 431 μs
- Q-band ([1]; solvent water): 615 nm
- Soret band ([1]; solvent water): 409 nm
Compound: O=S(=O)(N[C@H]1C(O)O[C@H](CO)[C@@H](O)[C@@H]1O)c1ccc(C2=C3N=C(C(c4ccc(S(=O)(=O)N[C@H]5C(O)O[C@H](CO)[C@@H](O)[C@@H]5O)cc4)=c4c5ccccc5c5[n]4[Pd][n]4c2c2ccccc2c4C(c2ccc(S(=O)(=O)N[C@H]4C(O)O[C@H](CO)[C@@H](O)[C@@H]4O)cc2)=C2N=C(C=5c4ccc(S(=O)(=O)N[C@H]5C(O)O[C@H](CO)[C@@H](O)[C@@H]5O)cc4)c4ccccc42)c2ccccc23)cc1 (stereo partly drawn) [PdTPhTBP (glucosamine)4]

- Quenching constant at a temperature of 38° C. [2, 7]: 186 Torr^−1s^−1
- Phosphorescent lifetime at zero-oxygen concentration [3, 7]: 408 μs
- Q-band ([1]; solvent water): 620 nm
- Soret band ([1]; solvent water): 421 nm
Compound: O=C(O)CNS(=O)(=O)c1ccc(C2=C3N=C(C(c4ccc(S(=O)(=O)NCC(=O)O)cc4)=c4c5ccccc5c5[n]4[Pd][n]4c2c2ccccc2c4C(c2ccc(S(=O)(=O)NCC(=O)O)cc2)=C2N=C(C=5c4ccc(S(=O)(=O)NCC(=O)O)cc4)c4ccccc42)c2ccccc23)cc1 [PdTPhTBP (glyc)4]

- Quenching constant at a temperature of 38° C. [2, 8]: 185 Torr^−1s^−1
- Phosphorescent lifetime at zero-oxygen concentration [3, 8]: 377 μs
- Q-band ([1]; solvent water): 630 nm
- Soret band ([1]; solvent water): 415 nm
Compound: O=C(O)Cc1ccc(NS(=O)(=O)c2ccc(C3=C4N=C(C(c5ccc(S(=O)(=O)Nc6ccc(CC(=O)O)cc6)cc5)=c5c6ccccc6c6[n]5[Pd][n]5c3c3ccccc3c5C(c3ccc(S(=O)(=O)Nc5ccc(CC(=O)O)cc5)cc3)=C3N=C(C=6c5ccc(S(=O)(=O)Nc6ccc(CC(=O)O)cc6)cc5)c5ccccc53)c3ccccc34)cc2)cc1 [PdTPhTBP (sulfonamide)4]

- Phosphorescence maximum [4]: 784 nm
- Phosphorescent lifetime at zero-oxygen concentration ([3]; solvent THF, 25 °C): 127 μs
- Q-band ([1]; solvent CHCl3): 610 nm
- Soret band ([1]; solvent CHCl3): 420 nm
Compound: c1ccc(C2=C3N=C(C(c4ccccc4)=c4c5ccccc5c5[n]4[Pd][n]4c2c2ccccc2c4C(c2ccccc2)=C2N=C(C=5c4ccccc4)c4ccccc42)c2ccccc23)cc1 [PdTPhTBP, palladium meso-tetraphenyltetrabenzoporphyrin]

- Phosphorescent lifetime at zero-oxygen concentration ([3]; solvent THF, 25 °C): 165 μs
- Q-band ([1]; solvent DMF): 694 nm
- Soret band [1, 6]: 415 nm
Compound: c1ccc(C2=C3N=C(C(c4ccccc4)=c4c5cc6ccccc6cc5c5[n]4[Pd][n]4c2c2cc6ccccc6cc2c4C(c2ccccc2)=C2N=C(C=5c4ccccc4)c4cc5ccccc5cc42)c2cc4ccccc4cc23)cc1 [PdTPhTNP]

- Q-band ([1]; solvent DMF): 630 nm
- Soret band [1, 5]: 437 nm
Compound: c1ccc(C2=C3N=C(C(c4ccccc4)=c4c5ccccc5c5[n]4[Pt][n]4c2c2ccccc2c4C(c2ccccc2)=C2N=C(C=5c4ccccc4)c4ccccc42)c2ccccc23)cc1 [PtTPhTBP]

- Q-band ([1]; solvent DMF): 700 nm
- Soret band [1, 6]: 425 nm
Compound: c1ccc(C2=C3N=C(C(c4ccccc4)=c4c5cc6ccccc6cc5c5[n]4[Pt][n]4c2c2cc6ccccc6cc2c4C(c2ccccc2)=C2N=C(C=5c4ccccc4)c4cc5ccccc5cc42)c2cc4ccccc4cc23)cc1 [PtTPhTNP]

- Q-band ([1]; solvent Acetone): 642 nm
- Soret band ([1]; solvent Acetone): 438 nm
Compound: c1ccc(C2=C3N=C(C(c4ccccc4)=c4c5ccccc5c5[n]4[Sn][n]4c2c2ccccc2c4C(c2ccccc2)=C2N=C(C=5c4ccccc4)c4ccccc42)c2ccccc23)cc1 [SnTPhTBP]

- Q-band ([1]; solvent Acetone): 630 nm
- Soret band ([1]; solvent Acetone): 431 nm
Compound: [OH][Y]1[n]2c3c4ccccc4c2C(c2ccccc2)=C2N=C(C(c4ccccc4)=c4c5ccccc5c([n]41)=C(c1ccccc1)C1=NC(=C3c3ccccc3)c3ccccc31)c1ccccc12 [Y(OH)TPhTBP]

Compound: [Zn].c1ccc2c(c1)-c1cc3[nH]c(cc4nc(cc5[nH]c(cc-2n1)c1ccccc51)-c1ccccc1-4)c1ccccc31 [ZnTBP (Pyridine)2, zinc tetrabenzoporphyrin]
- Q-band ([1]; solvent DMF): 624 nm
- Soret band [1, 5]: 425 nm

Compound: c1ccc(C2=C3N=C(C(c4ccccc4)=c4c5ccccc5c5[n]4[Zn][n]4c2c2ccccc2c4C(c2ccccc2)=C2N=C(C=5c4ccccc4)c4ccccc42)c2ccccc23)cc1.c1ccncc1.c1ccncc1 [ZnTPhTBP (Pyridine)2]
- Q-band ([1]; solvent Acetone): 625 nm
- Soret band ([1]; solvent Acetone): 428 nm

- Phosphorescent lifetime at zero-oxygen concentration ([3]; solvent DMF, 25 °C): 172 μs
Compound: lutetium (Lu) tetraphenyltetranaphthoporphyrin [LuTPhTNP]
